Test results: PubChem BioAssay AID1053121 (Broad Institute, 2014)
Values joined by “and” are separate entries in the source; they are usually repeats but may differ in a detail not shown here. Identical values can stand only once. Active and inactive are the calls of the source.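 How the source made its calls: active means fitted curve reaches 40% activation below the top valid dose in every replicate test, signal rising; inconclusive means replicate tests disagree on the call; inactive means all replicate tests inactive, including opposite-direction effects.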

Test system: D54 ERlucT glioma cells, NLG luciferase reporter gain-of-signal, 24 h
Assay: luciferase reporter signal increase in glioma cells, dose response, N-linked glycosylation inhibitor project, D54 ERlucT glioma cells, dry powder, set 6 (AID 1053121)
Conditions: not given

Row | SMILES | AC40
1 | COc1cc(Nc2c3c(nc4ccccc24)CCCC3)cc(OC)c1OC | 3590 nM
2 | CCn1c2ccccc2c2cc(NC(=O)c3cc(OC)c(OC)c(OC)c3)ccc21 | 41.9 nM
3 | CN(C)S(=O)(=O)c1ccc(N2CCCC2)c(C(=O)Nc2nc3ccccc3s2)c1 | 467 nM
4 | CCOc1ccc(NC(=O)c2cc(OC)nc3ccccc23)cc1 | 410 nM
5 | Cc1cnc(NC(=O)c2cc(S(=O)(=O)N3CCOCC3)ccc2N2CCCC2)s1 | 307 nM
6 | CN(C)S(=O)(=O)c1ccc(N2CCCC2)c(C(=O)Nc2nccs2)c1 | 1910 nM
7 | CCN(CC)CCCNc1nc2cc(OC)c(OC)cc2c2nc(-c3ccccc3)nn12 | 1660 nM
8 | CCN(CC)CCC(=O)Nc1cccc2c1C(=O)c1ccccc1C2=O | 729 nM
9 | Cc1cnc(NC(=O)c2cc(S(=O)(=O)N(C)C)ccc2N2CCC2)s1 | 364 nM
10 | Cc1cnc(NC(=O)c2cc(S(=O)(=O)N(C)C)ccc2C2CCCC2)s1 | 2210 nM
11 | Cc1ccc(Oc2ccc(S(=O)(=O)N3CCOCC3)cc2C(N)=O)c(-n2nc3ccccc3n2)c1 | 3400 nM
12 | COc1ccc(NC(=O)C(=O)c2cn(CC(=O)N3CCCC3)c3ccccc23)cc1 | 62.1 nM
13 | CC(=O)N[C@H]1[C@@H](O[C@@H]2OC(C[C@@H](O)C3O[C@@H](n4ccc(=O)[nH]c4=O)[C@H](O)[C@@H]3O)[C@H](O)[C@H](O)[C@H]2NC(=O)/C=C/CCCCCCCCCCC(C)C)O[C@H](CO)[C@@H](O)[C@@H]1O (some centres not stated) | 278 nM
14 | CN(C)S(=O)(=O)c1ccc(N2CCCC2)c(C(=O)Nc2ccccc2)c1 | 1080 nM
15 | COc1cc(-c2nnc(SCC3(c4ccc(Br)cc4)OCCO3)o2)cc(OC)c1OC | 1340 nM
16 | Cc1ccc2cc(CN(CCCN(C)C)C(=O)NCc3ccccc3)c(=O)[nH]c2c1C | 2680 nM
17 | CCCOC(=O)c1[nH]c2c(c1C)C(=O)CC(c1cccs1)C2 (configuration not stated) | 1500 nM
18 | Cc1cnc(NC(=O)c2cc(S(=O)(=O)N3CCCC3)ccc2N2CCCC2)s1 | 934 nM
19 | Cc1ccc(/C=N/NC(=O)C2COc3ccccc3O2)s1 (configuration not stated) | 1210 nM
20 | Cc1cnc(NC(=O)c2cc(S(=O)(=O)N(C)C)ccc2N(C)C)s1 | 5200 nM
21 | CCOc1ccc(S(=O)(=O)NCc2ccccn2)cc1NC(=O)c1ccccc1F | 1370 nM
22 | COc1ccc(NC(=O)c2cc(S(=O)(=O)N(C)C)ccc2N2CCCC2)cc1 | 10300 nM
23 | COc1cccc(N2CCN(C(=O)c3ccc(CS(=O)c4ccc(C)cc4)o3)CC2)c1 (configuration not stated) | 237 nM
24 | CC(=O)c1cccc(NC(=O)CSc2ncc(C(=O)Nc3ccccc3)c(=O)n2C)c1 | 6870 nM
25 | CCC1=Nc2cc(C(=O)NCCCOC)ccc2Sc2ccccc21 | 404 nM
26 | Nc1nc(=S)c2ncn([C@@H]3O[C@H](CO)[C@@H](O)[C@H]3O)c2[nH]1 | 771 nM
27 | Cc1cnc(NC(=O)c2cc(S(=O)(=O)N3CCCCC3)ccc2N2CCCC2)s1 | 7070 nM

Row | SMILES | AC40
28 | Cc1nnc(NC(=O)c2cc(S(=O)(=O)N(C)C)ccc2N2CCCC2)s1 | 4570 nM
29 | O=C(N/N=C/c1ccc(Cl)cc1)c1sccc1OCc1ccc(F)cc1 | 839 nM
30 | CCOC(=O)c1ccc(Oc2cc(C)nc(SC)n2)cc1 | 3890 nM
31 | Cc1ccc(CCC(=O)Nc2ncc(Cc3cc(Cl)ccc3Cl)s2)o1 | 205 nM
32 | Cc1[nH][nH]c(=O)c1C(c1ccc(-c2ccc(Cl)c(Cl)c2)o1)c1c(C)[nH][nH]c1=O | 1020 nM
33 | COc1cc(C(=O)NCCOc2cc(C)cc(C)c2)cc(OC)c1OC | 1850 nM
34 | CCN(CC)S(=O)(=O)c1ccc(N2CCCC2)c(C(=O)Nc2ncc(C)s2)c1 | 12000 nM
35 | Cc1cccc(C)c1OCCNC(=O)C(=O)NCc1ccco1 | 3620 nM
36 | CCOC(=O)COc1cccc2c(=O)n(CC(=O)NCc3ccccc3)ccc12 | 121 nM
37 | Cc1cnc(NC(=O)c2cc(S(=O)(=O)N(C)C)ccc2N2CCCCC2)s1 | 13700 nM
38 | Cc1cc(C)cc(C(=O)N2CC(=O)Nc3ccccc32)c1 | 12100 nM
39 | COC(=O)c1cn(C(=O)c2ccc(OC)cc2)c2ccccc12 | 1210 nM
40 | Cc1cnc(NC(=O)c2cc(S(=O)(=O)N3CCNCC3)ccc2N2CCCC2)s1 | 9460 nM
41 | COc1ccccc1OCC(=O)NNC(=O)c1ccoc1C | 633 nM
42 | Cc1cc(NC(=O)CSc2nc(-c3ccco3)cc(C(F)(F)F)n2)no1 | 434 nM
43 | CCN(CC)c1ccc(S(=O)(=O)N(C)C)cc1C(=O)Nc1ncc(C)s1 | 3210 nM
44 | CN(C)S(=O)(=O)c1ccc(N2CCCC2)c(C(=O)Nc2cccc(F)c2)c1 | 2610 nM
45 | Cc1csc(NC(=O)c2cc(S(=O)(=O)N(C)C)ccc2N2CCCC2)n1 | 575 nM
46 | Cc1cnc(NC(=O)c2cc(S(=O)(=O)NCc3ccccc3)ccc2N2CCCC2)s1 | 3670 nM
47 | CC(=O)N1CCC(=O)c2cc3ccccc3cc21 | 2420 nM
48 | CCCCOc1ccccc1C1CC(=O)NC2=C1C(=O)CCC2 (configuration not stated) | 948 nM
49 | Cc1ccc(C(=O)c2cc([N+](=O)[O-])ccc2N2CCOCC2)cc1C | 1100 nM
50 | Cc1cnc(NC(=O)c2cc(S(=O)(=O)N(C)C)ccc2N2CCCC2)s1 | 421 nM and 69.3 nM and 209 nM
51 | CCN(CC)CCOc1ccc2c(c1)C(=NNC(=O)c1ccccn1)c1cc(OCCN(CC)CC)ccc1-2 | 3070 nM
52 | Cc1ccc(NC(=O)c2cc(S(=O)(=O)N(C)C)ccc2N2CCCC2)cc1 | 1240 nM
53 | CC(=O)c1ccc(Oc2cc(C)nc(-n3nc(C)cc3C)n2)cc1 | 645 nM

Test system: not listed separately
Assay: as above
Conditions: D54 ERlucT glioma cells, NLG luciferase reporter gain-of-signal, 24 h; at 19.5 µM (top of the series)

Row | SMILES | activation (reporter increase)
54 | c1ccc(CSc2nnc(-c3ccccc3)o2)cc1 | -94.1% (inactive)
55 | Cc1cnc(NC(=O)c2cccc(S(=O)(=O)N(C)C)c2)s1 | -7.17% (inactive)
56 | Cc1ccc2cc(CN(CCCN(C)C)C(=O)Nc3ccccc3)c(=O)[nH]c2c1C | -11.1% (inactive)
57 | Cc1nc(NC(=O)c2cc(S(=O)(=O)N(C)C)ccc2N2CCCC2)n[nH]1 | 14.6% (inactive)
58 | O=C1CCNc2cc3ccccc3cc21 | -83.9% (inactive)
59 | COc1cccc2sc(NC(=O)c3cc(S(=O)(=O)N(C)C)ccc3N3CCCC3)nc12 | 5.88% (inactive)
60 | CN(C)CCCN(Cc1cc2ccccc2[nH]c1=O)C(=O)NCc1ccccc1 | 0% (inactive)
61 | Cc1cnc(NC(=O)c2cc(S(=O)(=O)N(CC(C)C)CC(C)C)ccc2N2CCCC2)s1 | -35.5% (inactive)
62 | COc1ccccc1CSc1nnc(-c2ccccc2)o1 | -67.6% (inactive)
63 | CN(C)S(=O)(=O)c1ccc(N2CCCC2)c(C(=O)Nc2ccc(Br)cc2)c1 | 32% (inactive)
64 | CN(C)S(=O)(=O)c1ccc(N2CCCC2)c(C(=O)Nc2ccncc2)c1 | 16.1% (inactive)
65 | COc1ccc2sc(NC(=O)c3cc(S(=O)(=O)N(C)C)ccc3N3CCCC3)nc2c1 | 29.4% (inactive)
66 | Cc1cc(C)nc(/N=C(\N)Nc2ccc(OCc3ccccc3)cc2)n1 | -50% (inactive)
67 | CN(C)S(=O)(=O)c1ccc(N2CCCC2)c(C(=O)Nc2cccnc2)c1 | 48.4% (inactive)
68 | CN(C)S(=O)(=O)c1ccc(N2CCCC2)c(C(=O)Nc2ccccc2Cl)c1 | 5.18% (inactive)
69 | Cc1cnc(NC(=O)c2cc(S(=O)(=O)N(C)C)ccc2N2CCNCC2)s1 | -10.1% (inactive)
70 | COc1ccc(CSc2nnc(-c3ccccc3)o2)cc1 | -76.5% (inactive)

Row | SMILES | activation (reporter increase)
71 | Brc1ccc(CSc2nnc(-c3ccccc3)o2)cc1 | -58.8% (inactive)
72 | Cc1ccccc1NC(=O)c1cc(S(=O)(=O)N(C)C)ccc1N1CCCC1 | 8.74% (inactive)
73 | O=C1CCN(Cc2ccccc2)c2cc3ccccc3cc21 | 30.6% (inactive)
74 | COc1ccccc1NC(=O)c1cc(S(=O)(=O)N(C)C)ccc1N1CCCC1 | 30.1% (inactive)
75 | Cc1cnc(NC(=O)c2cc(S(=O)(=O)N(C)c3ccccc3)ccc2N2CCCC2)s1 | 10.9% (inactive)
76 | COc1ccc2c(COC(=O)c3cccc(S(=O)(=O)NCC(C)C)c3)cc(=O)oc2c1 | 19.5% (inactive)
77 | CN(C)S(=O)(=O)c1ccc(N2CCCC2)c(C(=O)N2CCOCC2)c1 | 3.4% (inactive)
78 | CN(C)CCCN(Cc1cc2ccccc2[nH]c1=O)C(=O)Nc1ccccc1 | -2.22% (inactive)
79 | COc1ccc(-c2nnc(SCc3ccccc3)o2)cc1 | -91.2% (inactive)
80 | CN(C)C(=O)c1cc(S(=O)(=O)N(C)C)ccc1N1CCCC1 | 8.83% (inactive)
81 | COc1ccccc1-c1nnc(SCc2ccccc2)o1 | -20.7% (inactive)
82 | CN(C)S(=O)(=O)c1ccc(N2CCCC2)c(C(=O)Nc2ccccc2F)c1 | -4.62% (inactive)
83 | O=C(Cc1ccccc1)c1nnc(-c2ccccc2)o1 | -94.1% (inactive)
84 | Cc1cc(=O)[nH]c(N/N=C/c2cc(C)n(CC(F)(F)F)c2C)n1 | -91.2% (inactive)
85 | CCCNS(=O)(=O)c1cccc(C(=O)OCc2cc(=O)oc3cc(OC)ccc23)c1 | -91.2% (inactive)
86 | C/C(=N\NC(=O)c1c([N+](=O)[O-])c(C)nn1C)c1ccc(NC(=O)C2CCCC2)cc1 | -76.5% (inactive)
87 | CN(C)S(=O)(=O)c1ccc(N2CCCC2)c(C(=O)NC2CCCCC2)c1 | -20% (inactive)
